The values below come from PMC7719383 (Clinical and Translational Science, 2020).

For series [1] the following is noted: cited from earlier work.
A short description of series [2]: Plasma pharmacokinetics. The class given is in vivo, human. The note with it: for effect of co‐administration on exposure: dinaciclib with MK‐2206; for Tmax: median.
Series [3] concerns patients with advanced pancreatic cancer. The class given is in vivo, human.
Series [4] concerns pSer473 Akt. The note with it: lowest dose level tested (60 mg once weekly); cited from earlier work.
The mark [5] stands for this setting: A: Dinaciclib/combination N = 11.

Read-outs that look alike come from different tables or passages of the source.

In general, half-life refers to the time needed for the level to fall by half in the phase considered.

Consider `CCc1cnn2c(NCc3ccc[n+]([O-])c3)cc(N3CCCC[C@H]3CCO)nc12` [dinaciclib], for which the “recommended phase II dose” value in series [1] (single agent) is listed as 12 mg/m^2. In series [2] (African Americans and Asians vs white patients, P = 0.04), the “association between exposure (Cmax) and race” value is given as “lower exposure”. The “effect of co‐administration on exposure” value in series [2] is reported as “did not alter”. The “Dose reduction Dinaciclib” value in series [3] (setting [5]) is on record as 2 (18%) n (%); in series [3] (B: MK‐2206/combination N = 7) it was 0 (0%) n (%); in series [3] (Dose escalation N = 21), 3 (14%) n (%). Also, in series [3] (dinaciclib i.v. weekly in combination with MK‐2206), the maximum tolerated dose turned out to be 9 mg/m^2.
Take `NC1(c2ccc(-c3nc4ccn5c(=O)[nH]nc5c4cc3-c3ccccc3)cc2)CCC1` [MK‐2206]: the “recommended phase II dose” value in series [1] (once weekly) is on record as 200 mg. In addition, in series [4], the “pSer473 Akt expression in tumor biopsies” value was “significant reduction”. For the same compound, the “C ss,min” value in series [2] (MK‐2206 alone, Expansion, arm B, MK‐2206 135 mg, dinaciclib 9 mg/m^2, mean ± SD) was 48.0 ± 22.7 (7). Also, the Tmax in series [2] (MK‐2206 alone, Expansion, arm B, MK‐2206 135 mg, dinaciclib 9 mg/m^2) was 4 (2.17–25.17; 7) hour; in series [2] (human, plasma, oral, 90 mg, Tmax, MK‐2206 alone, Escalation, level 3, MK‐2206 90 mg, dinaciclib 12 mg/m^2), 5.97 h; in series [2] (human, plasma, oral, 135 mg, Tmax, MK‐2206 alone, Escalation, level 2.5, MK‐2206 135 mg, dinaciclib 9 mg/m^2), 4.5 h; in series [2] (human, plasma, oral, Tmax, MK‐2206 in combination, Expansion, arm A, MK‐2206 135 mg, dinaciclib 9 mg/m^2), 10.2 h; in series [2] (human, plasma, oral, Tmax, MK‐2206 in combination, Expansion, arm B, MK‐2206 135 mg, dinaciclib 9 mg/m^2) it was 5.13 h. Besides, the “T 1/2” value in series [2] (MK‐2206 in combination, Expansion, arm B, dose reduced, MK‐2206 90 mg, dinaciclib 9 mg/m^2, n = 1) was 64.5 (1) h. In addition, in series [2], the “effect of co‐administration on exposure” value is “did not alter”. Also, the half-life in series [2] (human, plasma, oral, 90 mg, T 1/2, MK‐2206 alone, Escalation, level 3, MK‐2206 90 mg, dinaciclib 12 mg/m^2, mean ± SD) was 68.3 ± 16.6 h; in series [2] (human, plasma, oral, 135 mg, T 1/2, MK‐2206 alone, Escalation, level 2.5, MK‐2206 135 mg, dinaciclib 9 mg/m^2, mean ± SD), 56.9 ± 9.7 h; in series [2] (human, plasma, oral, T 1/2, MK‐2206 in combination, Expansion, arm A, MK‐2206 135 mg, dinaciclib 9 mg/m^2, mean ± SD), 69.7 ± 23.1 h. The “Dose reduction MK‐2206” value is 0 (0%) n (%) in series [3] (setting [5]), 1 (14%) n (%) in series [3] (B: MK‐2206/combination N = 7) and 1 (5%) n (%) in series [3] (Dose escalation N = 21). Besides, the maximum tolerated dose in series [3] (MK‐2206 p.o. weekly in combination with dinaciclib) turned out to be 135 mg.
